Some results are limits rather than exact numbers.

The subject of one test is MKN45 cells. The experiment in a line: MKN45 cell proliferation assay (Cell-Titer-Glo, 120 h). Format: cell-based. The conditions noted are these: for EC50: Homo sapiens, MKN-45, 120 h, Cell-Titer-Glo, growth inhibition, read-out: MKN45 Cell Prolif. 120 hr (EC50); for MKN45 Cell Prolif. 120 hr (Ymin-Obs): minimal percent of DMSO control observed in the concentrations tested. Summed up:
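Growth inhibition was read as blank-corrected Cell-Titer-Glo luminescence expressed as percent DMSO control after 120 h at 37 C, 400 cells/well. Compounds tested in triplicate as 10-point half-log series from 1 or 10 uM, 0.1% DMSO; four-parameter fit gave EC50, and lowest observed percent control was reported as Ymin-obs.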

Another test addresses T1, WEE1 (Homo sapiens, UniProt P30291+Q96SW2).
T1 construct: C-terminal ePL-tagged (DiscoverX, Fremont, CA) full-length WEE1 expression construct; expressed in transfected cells; host or cells: LentiX-HEK293T (Invitrogen), lentiviral transduction; co-expressing GSPT1-GN (G576N, lacking the first 158 amino acids)
The experiment in a line: WEE1-ePL degradation assay (LentiX-WEE1-ePL-GSPT1-ND cells, InCELL Hunter luminescence, 4 h). The conditions noted are these: 293T-LentiX WEE1-ePL cells; for 293T-LentiX WEE1-ePL Degradation 4 hr (Ymin): lower limit of the fit (0 = luciferase inhibitor, Ymax = DMSO control); for DC50: read-out: 293T-LentiX WEE1-ePL Degradation 4 hr (EC50). The format is cell-based. In short, it runs like this:
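Degradation EC50 was fitted by a four-parameter logistic model, with the upper limit taken from DMSO wells. Luminescence was read with InCELL Hunter reagent after 30 min at room temperature, following a 4 h, 37° C exposure of 2500 cells/well. Cells were LentiX-HEK293T carrying ePL-tagged full-length WEE1, dosed in 10 points (3-fold) from 1 or 10 uM.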

Broadly, the EC50 is the concentration needed to bring the measured effect to its halfway point. As to `O=C1CCC(N2Cc3cc(O[C@H]4CCN(Cc5cc(-c6cccc(C7=CCOCC7)c6)ccn5)C4)ccc3C2=O)C(=O)N1` (stereo partly drawn) [3-(5-{[(3S)-1-({4-[3-(3,6-dihydro-2H-pyran-4-yl)phenyl]pyridin-2-yl}methyl)pyrrolidin-3-yl]oxy}-1-oxo-2,3-dihydro-1H-isoindol-2-yl)piperidine-2,6-dione], in the test on MKN45 cells, the EC50 was determined as 0.738 nM and the “MKN45 Cell Prolif. 120 hr (Ymin-Obs)” value is reported as 7.53. Moreover, on WEE1, the “293T-LentiX WEE1-ePL Degradation 4 hr (Ymin)” value is 28 and the DC50 came out at 2 nM.

Take `O=C1CCC(N2Cc3cc(O[C@H]4CCN(Cc5cc(-c6cccc(N7CCOCC7)c6)ccn5)C4)ccc3C2=O)C(=O)N1` (stereo partly drawn) [3-(5-{[(3S)-1-({4-[3-(morpholin-4-yl)phenyl]pyridin-2-yl}methyl)pyrrolidin-3-yl]oxy}-1-oxo-2,3-dihydro-1H-isoindol-2-yl)piperidine-2,6-dione]: in the test with MKN45 cells, the EC50 turned out to be 7.33 nM and the “MKN45 Cell Prolif. 120 hr (Ymin-Obs)” value stood at 4.54. Further, on WEE1, the “293T-LentiX WEE1-ePL Degradation 4 hr (Ymin)” value came out at 28 and the DC50 was 2.32 nM.

`O=C1CCC(N2Cc3cc(O[C@H]4CCN(Cc5cc(-c6ccc(C7CCOCC7)cc6)ccn5)C4)ccc3C2=O)C(=O)N1` (stereo partly drawn) [3-(5-{[(3S)-1-({4-[4-(oxan-4-yl)phenyl]pyridin-2-yl}methyl)pyrrolidin-3-yl]oxy}-1-oxo-2,3-dihydro-1H-isoindol-2-yl)piperidine-2,6-dione]: in the test with MKN45 cells, the half-maximal effective concentration (EC50) was 0.192 nM and the “MKN45 Cell Prolif. 120 hr (Ymin-Obs)” value turned out to be 6.39. In addition, at WEE1, the “293T-LentiX WEE1-ePL Degradation 4 hr (Ymin)” value was 31 and the DC50 was determined as 1.33 nM.

Turning to `Cc1cc(CN2CC[C@H](Oc3ccc4c(c3)CN(C3CCC(=O)NC3=O)C4=O)C2)ncc1OCC1CCOCC1` (stereo partly drawn) [3-(5-{[(3S)-1-({4-methyl-5-[(oxan-4-yl)methoxy]pyridin-2-yl}methyl)pyrrolidin-3-yl]oxy}-1-oxo-2,3-dihydro-1H-isoindol-2-yl)piperidine-2,6-dione], in the test on MKN45 cells, the EC50 stood at 44.9 nM and the “MKN45 Cell Prolif. 120 hr (Ymin-Obs)” value worked out at 16.9. In addition, at WEE1, the “293T-LentiX WEE1-ePL Degradation 4 hr (Ymin)” value came out at 42 and the DC50 is 9.71 nM.

Regarding `CNC1(c2ccc3cc(CN4CC[C@H](Oc5ccc6c(c5)CN(C5CCC(=O)NC5=O)C6=O)C4)ncc3c2)COC1` (stereo partly drawn) [3-(5-{[(3S)-1-({7-[3-(methylamino)oxetan-3-yl]isoquinolin-3-yl}methyl)pyrrolidin-3-yl]oxy}-1-oxo-2,3-dihydro-1H-isoindol-2-yl)piperidine-2,6-dione], in the test on MKN45 cells, the EC50 was found to be 56.4 nM and the “MKN45 Cell Prolif. 120 hr (Ymin-Obs)” value is on record as 7.77. At WEE1, the “293T-LentiX WEE1-ePL Degradation 4 hr (Ymin)” value is given as 33 and the DC50 was 96.7 nM.

As for `O=C1CCC(N2Cc3cc(O[C@H]4CCN(Cc5cnc6ccccn56)C4)ccc3C2=O)C(=O)N1` (stereo partly drawn) [3-(5-{[(3S)-1-({imidazo[1,2-a]pyridin-3-yl}methyl)pyrrolidin-3-yl]oxy}-1-oxo-2,3-dihydro-1H-isoindol-2-yl)piperidine-2,6-dione], in the test with MKN45 cells, the EC50 worked out at 933 nM and the “MKN45 Cell Prolif. 120 hr (Ymin-Obs)” value was 21.75. In addition, on WEE1, the “293T-LentiX WEE1-ePL Degradation 4 hr (Ymin)” value is recorded as 33.52 and the DC50 amounted to 150 nM.

Regarding `O=C1CCC(N2Cc3cc(O[C@H]4CCN(Cc5ccc6ncccc6n5)C4)ccc3C2=O)C(=O)N1` (stereo partly drawn) [3-(5-{[(3S)-1-[(1,5-naphthyridin-2-yl)methyl]pyrrolidin-3-yl]oxy}-1-oxo-2,3-dihydro-1H-isoindol-2-yl)piperidine-2,6-dione], in the test with MKN45 cells, the concentration for a half-maximal effect (EC50) worked out at 2520 nM and the “MKN45 Cell Prolif. 120 hr (Ymin-Obs)” value is on record as 54.03. On WEE1, the “293T-LentiX WEE1-ePL Degradation 4 hr (Ymin)” value was 37 and the DC50 came to 27.9 nM.

Turning to `O=C1CCC(N2Cc3cc(O[C@H]4CCN(Cc5cnc6cccnc6c5)C4)ccc3C2=O)C(=O)N1` (stereo partly drawn) [3-(5-{[(3S)-1-[(1,5-naphthyridin-3-yl)methyl]pyrrolidin-3-yl]oxy}-1-oxo-2,3-dihydro-1H-isoindol-2-yl)piperidine-2,6-dione], in the test with MKN45 cells, the EC50 amounted to 561 nM and the “MKN45 Cell Prolif. 120 hr (Ymin-Obs)” value is listed as 73.34. In addition, on WEE1, the “293T-LentiX WEE1-ePL Degradation 4 hr (Ymin)” value worked out at 66 and the DC50 was found to be 75.4 nM.

`O=C1CCC(N2Cc3cc(O[C@H]4CCN(Cc5cc6ncccc6cn5)C4)ccc3C2=O)C(=O)N1` (stereo partly drawn) [3-(5-{[(3S)-1-[(1,6-naphthyridin-7-yl)methyl]pyrrolidin-3-yl]oxy}-1-oxo-2,3-dihydro-1H-isoindol-2-yl)piperidine-2,6-dione]: in the test on MKN45 cells, the half-maximal effective concentration (EC50) was 960 nM and the “MKN45 Cell Prolif. 120 hr (Ymin-Obs)” value is 84.48. On WEE1, the “293T-LentiX WEE1-ePL Degradation 4 hr (Ymin)” value turned out to be 67.53 and the DC50 was 122 nM.

With `O=C1CCC(N2Cc3cc(O[C@H]4CCN(Cc5cnc6cnccc6c5)C4)ccc3C2=O)C(=O)N1` (stereo partly drawn) [3-(5-{[(3S)-1-[(1,7-naphthyridin-3-yl)methyl]pyrrolidin-3-yl]oxy}-1-oxo-2,3-dihydro-1H-isoindol-2-yl)piperidine-2,6-dione], in the test with MKN45 cells, the EC50 is 92.3 nM and the “MKN45 Cell Prolif. 120 hr (Ymin-Obs)” value is reported as 9.14. Moreover, at WEE1, the “293T-LentiX WEE1-ePL Degradation 4 hr (Ymin)” value turned out to be 26.94 and the DC50 is 20.8 nM.

Take `O=C1CCC(N2Cc3cc(O[C@H]4CCN(Cc5cc6cccnc6cn5)C4)ccc3C2=O)C(=O)N1` (stereo partly drawn) [3-(5-{[(3S)-1-[(1,7-naphthyridin-6-yl)methyl]pyrrolidin-3-yl]oxy}-1-oxo-2,3-dihydro-1H-isoindol-2-yl)piperidine-2,6-dione]: in the test on MKN45 cells, the EC50 came out at 102 nM and the “MKN45 Cell Prolif. 120 hr (Ymin-Obs)” value worked out at 9.59. In addition, at WEE1, the “293T-LentiX WEE1-ePL Degradation 4 hr (Ymin)” value amounted to 26.505 and the DC50 amounted to 14.7 nM.

As to `O=C1CCC(N2Cc3cc(O[C@H]4CCN(Cc5ccc6cccnc6n5)C4)ccc3C2=O)C(=O)N1` (stereo partly drawn) [3-(5-{[(3S)-1-[(1,8-naphthyridin-2-yl)methyl]pyrrolidin-3-yl]oxy}-1-oxo-2,3-dihydro-1H-isoindol-2-yl)piperidine-2,6-dione], in the test on MKN45 cells, the EC50 amounted to 1020 nM and the “MKN45 Cell Prolif. 120 hr (Ymin-Obs)” value amounted to 65.94. Further, on WEE1, the “293T-LentiX WEE1-ePL Degradation 4 hr (Ymin)” value was found to be 75 and the DC50 is 292 nM.

Regarding `O=C1CCC(N2Cc3cc(O[C@H]4CCN(Cc5cnc6ncccc6c5)C4)ccc3C2=O)C(=O)N1` (stereo partly drawn) [3-(5-{[(3S)-1-[(1,8-naphthyridin-3-yl)methyl]pyrrolidin-3-yl]oxy}-1-oxo-2,3-dihydro-1H-isoindol-2-yl)piperidine-2,6-dione], in the test on MKN45 cells, the EC50 amounted to 547 nM and the “MKN45 Cell Prolif. 120 hr (Ymin-Obs)” value was 12.27. For the same compound, at WEE1, the “293T-LentiX WEE1-ePL Degradation 4 hr (Ymin)” value worked out at 27.365 and the DC50 is 70.6 nM.

In the case of `CN1CCCc2c(CN3CC[C@H](Oc4ccc5c(c4)CN(C4CCC(=O)NC4=O)C5=O)C3)cncc21` (stereo partly drawn) [3-(5-{[(3S)-1-[(1-methyl-1,2,3,4-tetrahydro-1,7-naphthyridin-5-yl)methyl]pyrrolidin-3-yl]oxy}-1-oxo-2,3-dihydro-1H-isoindol-2-yl)piperidine-2,6-dione], in the test with MKN45 cells, the half-maximal effective concentration (EC50) stood at 313 nM and the “MKN45 Cell Prolif. 120 hr (Ymin-Obs)” value was determined as 43.26. Besides, at WEE1, the “293T-LentiX WEE1-ePL Degradation 4 hr (Ymin)” value came to 40 and the DC50 turned out to be 19.6 nM.

Regarding `Cn1ncc2cc(CN3CC[C@H](Oc4ccc5c(c4)CN(C4CCC(=O)NC4=O)C5=O)C3)ccc21` (stereo partly drawn) [3-(5-{[(3S)-1-[(1-methyl-1H-indazol-5-yl)methyl]pyrrolidin-3-yl]oxy}-1-oxo-2,3-dihydro-1H-isoindol-2-yl)piperidine-2,6-dione], in the test with MKN45 cells, the EC50 was > 10000 nM and the “MKN45 Cell Prolif. 120 hr (Ymin-Obs)” value stood at 86.69. Moreover, at WEE1, the “293T-LentiX WEE1-ePL Degradation 4 hr (Ymin)” value is 61 and the DC50 came out at 68.8 nM.

For the origin of these results see US20240067632A1, “WEE1 Degrading Compounds and Uses Thereof” (Bristol-Myers Squibb Company, priority 2022, published 2024).
